Data published in patent publication US12478613B2, “Selective MAO-B inhibitor DRG-MAOB-2 for use in treatment of neurodegenerative diseases” (BAHCESEHIR UNIVERSITESI, priority 2020, dated 2025).

Experiments:
human MAO-B = target: T1, human MAO-B (Homo sapiens, UniProt P27338); experiment: MAO inhibitory assay (kynuramine, fluorescence), MAO-B; assay type: biochemical
T1 sequence (P27338 1-520): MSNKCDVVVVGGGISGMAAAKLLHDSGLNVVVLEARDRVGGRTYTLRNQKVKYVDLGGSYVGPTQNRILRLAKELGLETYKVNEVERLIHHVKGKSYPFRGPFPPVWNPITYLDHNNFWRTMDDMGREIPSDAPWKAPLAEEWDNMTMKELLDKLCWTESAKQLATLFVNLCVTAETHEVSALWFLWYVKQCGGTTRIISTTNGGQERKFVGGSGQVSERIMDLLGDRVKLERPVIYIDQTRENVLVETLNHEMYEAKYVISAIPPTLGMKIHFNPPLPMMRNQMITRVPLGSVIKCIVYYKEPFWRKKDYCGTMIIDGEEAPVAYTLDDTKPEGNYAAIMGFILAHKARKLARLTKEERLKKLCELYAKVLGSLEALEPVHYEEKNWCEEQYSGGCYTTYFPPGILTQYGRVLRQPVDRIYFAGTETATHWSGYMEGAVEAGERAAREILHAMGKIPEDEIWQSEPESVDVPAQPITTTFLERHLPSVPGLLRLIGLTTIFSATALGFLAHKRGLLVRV
Method: (§1) MAO inhibitory activity was assayed using the method of Novaroli et al. with minor modifications. Briefly, 140 μL of 0.1 M potassium phosphate buffer (pH 7.4), 8 μL of 0.75 mM kynuramine, and 2 μL of a dimethyl sulfoxide (DMSO) inhibitor solution (final DMSO concentration of 1% (v/v) and final concentrations of the inhibitors of 0-1 μM), were preincubated at 37° C. for 10 min. Diluted human recombinant enzyme (50 μL) was then added to obtain a final protein concentration of 0.0075 mg/mL (MAO-A) or 0.015 mg/mL (MAO-B) in the assay mixture. The reaction mixture was further incubated at 37° C. and the reaction was stopped after 20 min by the addition of 75 μL of 2 M NaOH. The product generated by MAO, 4-quinolinol, is fluorescent and was measured at Ex 310 nm/Em 400 nm using a microplate reader (Thermo Scientific-Multiskan GO). Each data points of samples were triplicate. The sample solution was replaced with DMSO to provide a negative control.

human MAO-A = target: T2, human MAO-A (Homo sapiens, UniProt P21397); experiment: MAO inhibitory assay (kynuramine, fluorescence), MAO-A; assay type: biochemical; details: human recombinant enzyme, kynuramine substrate, 37° C., pH 7.4
T2 sequence (P21397 1-527): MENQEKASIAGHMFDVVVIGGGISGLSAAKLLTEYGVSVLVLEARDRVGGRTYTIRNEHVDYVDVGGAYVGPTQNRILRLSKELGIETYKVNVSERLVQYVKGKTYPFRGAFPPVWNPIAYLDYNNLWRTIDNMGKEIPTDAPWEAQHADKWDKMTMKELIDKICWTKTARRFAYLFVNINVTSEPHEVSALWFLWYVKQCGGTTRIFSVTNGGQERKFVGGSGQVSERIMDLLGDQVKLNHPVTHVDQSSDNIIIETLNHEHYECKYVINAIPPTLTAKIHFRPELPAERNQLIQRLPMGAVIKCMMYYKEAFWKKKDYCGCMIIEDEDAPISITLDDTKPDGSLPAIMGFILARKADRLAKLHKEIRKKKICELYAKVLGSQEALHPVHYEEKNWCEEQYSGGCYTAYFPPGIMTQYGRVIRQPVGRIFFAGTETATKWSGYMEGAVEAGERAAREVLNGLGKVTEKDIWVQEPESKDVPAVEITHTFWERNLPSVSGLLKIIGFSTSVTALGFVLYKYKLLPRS
Method: as §1

IC50 (human MAO-B; human recombinant enzyme, kynuramine substrate, 37° C., pH 7.4): 3.22 ± 0.02 nM
fold more potent binding to MOA-B compared to MOA-A (human MAO-B; ratio of IC50 MAO-A / MAO-B): approximately 9 fold
IC50 (human MAO-A): 29.5 ± 1.1 nM
SMILES: COc1ccc(-c2cc(C(=O)NCCn3cnc4ccccc43)n[nH]2)cc1OC [compound of formula I]
